# Assay results reported in patent EP0745595A1, “3-(3-Aryloxyphenyl)-1-(substituted methyl)-s-triazine-2,4,6-oxo or thiotrione herbicidal agents” (American Cyanamid Company, priority 1995, dated 1996).
# Key:
# Format in all cases: in vivo
# IPOMOEA SPP. [1] = assay: Postemergence herbicidal evaluation, IPOSS (Morningglory spp.); conditions: rated four to five weeks after treatment, averaged
# Procedure, shortened: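 Seedlings of morningglory (Ipomoea spp.) were raised in jiffy flats for roughly two weeks. They were then sprayed postemergence through a nozzle at 40 psi with test compound dispersed in 50/50 acetone/water containing 0.5% TWEEN®20 surfactant. Plants were kept on greenhouse benches under standard care and visually rated 0-9 against controls four to five weeks after treatment.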
# [2] = system: ORYZA SATIVA, L. CV. KOSHIHIKARI; assay: Post-transplant rice evaluation under flooded paddy conditions (Example 43), ORYSAK (Rice, Koshihikari); parameters: key: visual rating on a 0-9 scale, compared with control; conditions: applied three days after transplanting rice, 25 to 30 days after treatment
# Protocol: (§1) Results of herbicide evaluation are expressed on a rating scale (0-9). The scale is based upon a visual observation of plant stand, vigor, malformation, size, chlorosis and overall plant appearance as compared with a control.
# (§2) In this example, Deluvian paddy soil (Toyokawa paddy soil) is placed in plastic pots, 100cm^2 x 9 cm in depth. Water is added to the level of the soil surface in the pot and the mixture is paddled 3 cm in depth.
# (§3) Pots are then variously sown with monocotyledenous weed seeds and tubers at 0-2 cm in soil depth, as well as transplanted rice plants at the 2.5 leaf stage. The rice plants are transplanted at about 3 cm soil depth. Water is then added to all of the pots to 3 cm deep and kept at a depth of 3 cm for the duration of the test. Test compounds are applied in the manner described in Example 42 three days after transplanting the rice plants and sowing the weed seeds and tubers. The pots are then placed on greenhouse benches and cared for in the conventional manner. Tests are examined at 25 to 30 days after treatment and rated according to the rating system provided in Example 40. The compounds evaluated are reported by compound number given in Example 40.
# GALIUM APARINE = assay: Preemergence herbicidal evaluation, GALAP (Galium); conditions: four to five weeks after treatment
# Procedure, shortened: (§4)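 Rated 0-9 by visual comparison with control (stand, vigor, malformation, size, chlorosis, overall appearance) four to five weeks after preemergence soil spray. Dose equivalent to about 0.125 to 0.50 kg per hectare, applied in aqueous acetone to freshly seeded cups kept in greenhouse.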
# IPOMOEA SPP. [3] = assay: Preemergence herbicidal evaluation, IPOSS (Morningglory spp.); conditions: four to five weeks after treatment
# Procedure, shortened: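 Seeds of morningglory (Ipomoea spp.) were mixed with potting soil and sown on roughly one inch of soil in pint cups for a preemergence herbicide test. The cups were put on greenhouse benches, watered, and maintained by standard greenhouse practice. Four to five weeks after treatment each cup was scored visually on a 0-9 scale against a control.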
# CHENOPODIUM ALBUM, L. [4] = assay: Postemergence herbicidal evaluation, CHEAL (Lambsquarters, Common); conditions: rated four to five weeks after treatment, averaged
# Procedure, shortened: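 Seedlings of common lambsquarters (Chenopodium album) were raised in jiffy flats for roughly two weeks, then sprayed postemergence through a nozzle at 40 psi with test compound dispersed in 50/50 acetone/water containing 0.5% TWEEN®20 surfactant. Plants were kept on greenhouse benches under standard care and rated visually on a 0-9 scale versus controls.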
# [5] = system: CYPERUS SEROTINUS, ROTTB.; assay: Preemergence weed control under flooded paddy conditions, CYPSE (Flatsedge); conditions: preemergence weeds, rated three to four weeks after treatment
# Procedure, shortened: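 Seeds or propagules sown in top 0.5 cm of silt loam in undrained containers, flooded 1.5 to 3 cm throughout. Compounds in aqueous/acetone 50/50 v/v pipetted into flood water at about 0.5, 0.25, 0.125 and 0.063 kg/ha. Visual 0-9 rating versus control after three to four weeks in greenhouse.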
# SAGITTARIA PYGMAEA = assay: Preemergence evaluation in the presence of transplanted rice under flooded paddy conditions (Example 43), SAGPY (Arrowhead (Pygmaea)); parameters: key: visual rating on a 0-9 scale, compared with control; conditions: applied three days after sowing, 25 to 30 days after treatment
# Protocol: as §1, §2, §3
# [6] = system: ORYZA SATIVA, L. TEBONNET; assay: Rice tolerance to post-transplant applications under flooded paddy conditions, ORYSAT (Rice, Tebonnet); conditions: post-transplant rice, rated three to four weeks after treatment;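 further: applied to flooded soil surface three days after transplanting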
# Procedure, shortened: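 Two ten-day-old Tebonnet rice seedlings were transplanted into silt loam and kept flooded 1.5 to 3 cm deep. Three days after transplanting, the flood surface received the compound in aqueous/acetone 50/50 v/v at about 0.5, 0.25, 0.125 or 0.063 kg/ha. Injury was rated visually on a 0-9 scale versus control after 3-4 weeks.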
# ECHINOCHLOA CRUS-GALLI = assay: Preemergence evaluation in the presence of transplanted rice under flooded paddy conditions (Example 43), ECHCG (Barnyard Grass); parameters: key: visual rating on a 0-9 scale, compared with control; conditions: applied three days after sowing, 25 to 30 days after treatment
# Protocol: as §1, §2, §3
# CYPERUS DIFFORMIS = assay: Preemergence evaluation in the presence of transplanted rice under flooded paddy conditions (Example 43), CYPDI (Flatsedge, smallflower); parameters: key: visual rating on a 0-9 scale, compared with control; conditions: applied three days after sowing, 25 to 30 days after treatment
# Protocol: as §1, §2, §3
# CHENOPODIUM ALBUM, L. [7] = assay: Preemergence herbicidal evaluation, CHEAL (Lambsquarters, Common); conditions: four to five weeks after treatment
# Procedure, shortened: as §4
# [8] = system: ABUTILON THEOPHRASTI, MEDIC.; assay: Postemergence herbicidal evaluation, ABUTH (Velvetleaf); conditions: rated four to five weeks after treatment, averaged
# Procedure, shortened: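 Velvetleaf (Abutilon theophrasti) seedlings were raised in jiffy flats for about two weeks and then sprayed postemergence. The test compound was dispersed in a 50/50 acetone/water mixture containing 0.5% TWEEN®20 and applied through a nozzle operating at 40 psi. Plants were kept on greenhouse benches and rated 0-9 four to five weeks after treatment.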
# [9] = system: ABUTILON THEOPHRASTI, MEDIC.; assay: Preemergence herbicidal evaluation, ABUTH (Velvetleaf); conditions: four to five weeks after treatment
# Procedure, shortened: as §4
# […] = Preemergence evaluation in the presence of transplanted rice under flooded paddy conditions (Example 43), MOOVA (Monochoria); conditions: applied three days after sowing, 25 to 30 days after treatment
# Protocol: as §1, §2, §3
# SCIRPUS JUNCOIDES = assay: Preemergence evaluation in the presence of transplanted rice under flooded paddy conditions (Example 43), SCPJU (Bulrush, Japanese); parameters: key: visual rating on a 0-9 scale, compared with control; conditions: applied three days after sowing, 25 to 30 days after treatment
# Protocol: as §1, §2, §3
smiles,measurement,setting,value
"CCOC(=O)Cn1c(=O)[nH]c(=O)n(-c2cc(Oc3ccc(C(F)(F)F)cc3Cl)ccc2[N+](=O)[O-])c1=O [Compound 5, Ethyl 3-{5-[(2-chloro-α,α,α-trifluoro-p-tolyl)oxy]-2-nitrophenyl}tetrahydro-2,4,6-trioxo-s-triazine-1(2H)-acetate]","IPOSS, herbicide rating (0-9)",IPOMOEA SPP. [1]; Rate 0.125 kg/ha,9.0
same,"IPOSS, herbicide rating (0-9)",IPOMOEA SPP. [1]; Rate 0.250 kg/ha,9.0
same,"IPOSS, herbicide rating (0-9)",IPOMOEA SPP. [1]; Rate 0.500 kg/ha,9.0
same,"Herbicidal effect rating, ORYSAK",[2]; 0.032 kg/ha,0.0
same,"Herbicidal effect rating, ORYSAK",[2]; 0.063 kg/ha,0.0
same,"Herbicidal effect rating, ORYSAK",[2]; 0.125 kg/ha,2.0
same,"Herbicidal effect rating, ORYSAK",[2]; 0.250 kg/ha,2.0
same,GALAP rating,GALIUM APARINE; Rate 0.125 kg/ha,9.0
same,GALAP rating,GALIUM APARINE; Rate 0.250 kg/ha,9.0
same,GALAP rating,GALIUM APARINE; Rate 0.500 kg/ha,9.0
same,IPOSS rating,IPOMOEA SPP. [3]; Rate 0.125 kg/ha,9.0
same,IPOSS rating,IPOMOEA SPP. [3]; Rate 0.250 kg/ha,9.0
same,IPOSS rating,IPOMOEA SPP. [3]; Rate 0.500 kg/ha,9.0
same,"CHEAL, herbicide rating (0-9)","CHENOPODIUM ALBUM, L. [4]; Rate 0.125 kg/ha",8.0
same,"CHEAL, herbicide rating (0-9)","CHENOPODIUM ALBUM, L. [4]; Rate 0.250 kg/ha",8.0
same,"CHEAL, herbicide rating (0-9)","CHENOPODIUM ALBUM, L. [4]; Rate 0.500 kg/ha",8.0
same,CYPSE herbicidal rating,[5]; Rate 0.125 kg/ha,9.0
same,CYPSE herbicidal rating,[5]; Rate 0.250 kg/ha,9.0
same,CYPSE herbicidal rating,[5]; Rate 0.500 kg/ha,9.0
same,"Herbicidal effect rating, SAGPY",SAGITTARIA PYGMAEA; 0.032 kg/ha,1.0
same,"Herbicidal effect rating, SAGPY",SAGITTARIA PYGMAEA; 0.063 kg/ha,3.0
same,"Herbicidal effect rating, SAGPY",SAGITTARIA PYGMAEA; 0.125 kg/ha,9.0
same,"Herbicidal effect rating, SAGPY",SAGITTARIA PYGMAEA; 0.250 kg/ha,8.0
same,ORYSAT herbicidal rating (rice tolerance),[6]; Rate 0.063 kg/ha,3.0
same,ORYSAT herbicidal rating (rice tolerance),[6]; Rate 0.125 kg/ha,4.3
same,ORYSAT herbicidal rating (rice tolerance),[6]; Rate 0.250 kg/ha,5.0
same,ORYSAT herbicidal rating (rice tolerance),[6]; Rate 0.500 kg/ha,5.3
same,"Herbicidal effect rating, ECHCG",ECHINOCHLOA CRUS-GALLI; 0.032 kg/ha,8.0
same,"Herbicidal effect rating, ECHCG",ECHINOCHLOA CRUS-GALLI; 0.063 kg/ha,8.0
same,"Herbicidal effect rating, ECHCG",ECHINOCHLOA CRUS-GALLI; 0.125 kg/ha,8.0
same,"Herbicidal effect rating, ECHCG",ECHINOCHLOA CRUS-GALLI; 0.250 kg/ha,9.0
same,"Herbicidal effect rating, CYPDI",CYPERUS DIFFORMIS; 0.032 kg/ha,8.0
same,"Herbicidal effect rating, CYPDI",CYPERUS DIFFORMIS; 0.063 kg/ha,9.0
same,"Herbicidal effect rating, CYPDI",CYPERUS DIFFORMIS; 0.125 kg/ha,9.0
same,"Herbicidal effect rating, CYPDI",CYPERUS DIFFORMIS; 0.250 kg/ha,9.0
same,CHEAL rating,"CHENOPODIUM ALBUM, L. [7]; Rate 0.125 kg/ha",9.0
same,CHEAL rating,"CHENOPODIUM ALBUM, L. [7]; Rate 0.250 kg/ha",9.0
same,CHEAL rating,"CHENOPODIUM ALBUM, L. [7]; Rate 0.500 kg/ha",9.0
same,"ABUTH, herbicide rating (0-9)",[8]; Rate 0.125 kg/ha,9.0
same,"ABUTH, herbicide rating (0-9)",[8]; Rate 0.250 kg/ha,9.0
same,"ABUTH, herbicide rating (0-9)",[8]; Rate 0.500 kg/ha,9.0
same,ABUTH rating,[9]; Rate 0.125 kg/ha,9.0
same,ABUTH rating,[9]; Rate 0.250 kg/ha,9.0
same,ABUTH rating,[9]; Rate 0.500 kg/ha,9.0
same,"Herbicidal effect rating, MOOVA",[…]; 0.032 kg/ha,9.0
same,"Herbicidal effect rating, MOOVA",[…]; 0.063 kg/ha,9.0
same,"Herbicidal effect rating, MOOVA",[…]; 0.125 kg/ha,9.0
same,"Herbicidal effect rating, MOOVA",[…]; 0.250 kg/ha,9.0
same,"Herbicidal effect rating, SCPJU",SCIRPUS JUNCOIDES; 0.032 kg/ha,4.0
same,"Herbicidal effect rating, SCPJU",SCIRPUS JUNCOIDES; 0.063 kg/ha,6.0
same,"Herbicidal effect rating, SCPJU",SCIRPUS JUNCOIDES; 0.125 kg/ha,9.0
same,"Herbicidal effect rating, SCPJU",SCIRPUS JUNCOIDES; 0.250 kg/ha,9.0
